# From PMC7380166, “How to Study the Metabolism of New Psychoactive Substances for the Purpose of Toxicological Screenings—A Follow-Up Study Comparing Pooled Human Liver S9, HepaRG Cells, and Zebrafish Larvae” (Frontiers in Chemistry, 2020)
# Legend:
# [1] = Incubations with pooled human liver S9 fraction (pHLS9), metabolite identification by LC-HRMS/MS; type: in vitro ADME; settings: for Absolute peak area, pHLS9 1 h [25 μM] / Absolute peak area, pHLS9 6 h [25 μM]: 25 μM 4F-MDMB-BINACA, one replicate of n = 2, n.d. = not detected; for Absolute peak area, pHLS9 1 h [25 μM]: 1 h incubation; for Absolute peak area, pHLS9 6 h [25 μM]: 6 h incubation
# Experimental: According to published procedures (Richter et al., [2017b], [2019b]; Caspar et al., [2018b]; Wagmann et al., [2019b],[c]), the final incubation volume per reaction tube was 150 μl, with a final protein concentration of 2 mg/ml. The given concentrations represent final concentrations. A preincubation for 10 min at 37°C with UGT reaction mixture solution B (containing alamethicin, 25 μg/ml), MgCl2 (2.5 mM), NADP^+ (0.6 mM), isocitrate (2.5 mM), isocitrate dehydrogenase (0.8 U/ml), superoxide dismutase (100 U/ml), acetyl coenzyme A (0.1 mM), phosphate buffer (90 mM, pH 7.4), and pHLS9 (2 mg/ml) was done. Afterwards, UGT reaction mixture solution A (containing UDP glucuronic acid, 2.5 mM), PAPS (40 μM), SAM (1.2 mM), dithiothreitol (1 mM), and glutathione (10 mM) were added, as well as 25 μM 4F-MDMB-BINACA to start the reactions. The mixture was incubated for 360 min. Total amount of organic solvent in incubation mixtures was <2% (Chauret et al., [1998]). After 60 min, an aliquot of the reaction mixture (60 μl) was transferred in another reaction tube containing 20 μl of ice-cold acetonitrile to terminate the reactions. The remaining aliquot (90 μl) was incubated for an additional 300 min, and then the reactions were stopped by adding 30 μl of ice-cold acetonitrile. Thereafter, the reaction tubes were cooled at −20°C for 30 min prior to centrifugation at 18,407 × g for 2 min. The supernatants (50 μl) were transferred into autosampler vials, and 1 μl was injected onto the LC-HRMS/MS system. Control samples without pHLS9 and blank samples without substrate were prepared to confirm the absence of non-metabolically formed and interfering compounds, respectively. All incubations were performed in duplicate.
# According to a previous study (Richter et al., [2019a]), a Thermo Fisher Scientific (TF, Dreieich, Germany) Dionex UltiMate 3000 Rapid Separation (RS) UHPLC system with a quaternary UltiMate 3000 RS pump and an UltiMate 3000 RS autosampler controlled by the TF Chromeleon software version 6.8 was used. The LC system was coupled to an Orbitrap-based TF Q-Exactive Plus equipped with a heated electrospray ionization II (HESI-II) source. Calibration was done prior to analysis with a Positive Cal Mix (Supelco, Bellefonte, PA, USA) at a flow rate of 3 μl/min using a syringe pump. The conditions of the LC system were as follows: TF Accucore PhenylHexyl column (100 × 2.1 mm, 2.6 μm particle size); gradient elution with 2 mM ammonium formate solution containing 0.1% (v/v) formic acid (eluent A) and 2 mM ammonium formate solution in acetonitrile/methanol (50:50, v/v) containing 0.1% (v/v) formic acid, and 1% (v/v) water (eluent B). […] The following gradient was used: 0–1.0 min hold 1% B, 1–10 min to 99% B, 10–11.5 min hold 99% B, 11.5–13.5 min hold 1% B. The HESI-II source conditions were as follows: ionization mode, positive; heater temperature, 320°C; ion transfer capillary temperature, 320°C; sheath gas, 60 arbitrary units (AU); auxiliary gas, 10 AU; spray voltage, 4.00 kV; and S-lens RF level, 50.0. Mass spectrometry experiments were performed using high-resolution (HR) full scan mode and a targeted MS^2 mode with an inclusion list for each NPS. The inclusion list contained m/z values of metabolites, which were likely to be formed for example hydroxy, oxo, carboxy, dealkyl, demethylenylated, and defluorinated metabolites (phase I) as well as sulfates and glucuronides (phase II) and combinations of them. Full scan settings were as follows: resolution, 35,000; automatic gain control (AGC) target, 3e6; maximum injection time (IT), 120 ms; scan ranges, 3,4-DMA-NBOMe m/z 100–700, ephylone m/z 200–600, 4F-MDMB-BINACA m/z 150–700, 4F-PHP m/z 200–600, and 1P-LSD m/z 250–700. The settings for the targeted MS^2 mode with the respective inclusion lists were as follows: resolution, 17,500; AGC target, 2e5; maximum IT, 250 ms; loop count, 5; isolation window, 1.0 m/z; stepped normalized collision energy (NCE), 17.5, 35, 52.5%; pick others, enabled. […]
# CYP2C8 = target: T1, CYP2C8 (Homo sapiens, UniProt P10632); assay: Monooxygenases activity screening, CYP2C8; type: in vitro ADME; set-up: key: +, detected; –: −, not detected; settings: 25 μM 4F-MDMB-BINACA, 50 pmol/ml enzyme, 30 min, 37°C, duplicate
# T1 construct: purchased Corning; host or cells: baculovirus-transfected insect cell microsomes (Supersomes)
# T1 sequence (P10632 1-490): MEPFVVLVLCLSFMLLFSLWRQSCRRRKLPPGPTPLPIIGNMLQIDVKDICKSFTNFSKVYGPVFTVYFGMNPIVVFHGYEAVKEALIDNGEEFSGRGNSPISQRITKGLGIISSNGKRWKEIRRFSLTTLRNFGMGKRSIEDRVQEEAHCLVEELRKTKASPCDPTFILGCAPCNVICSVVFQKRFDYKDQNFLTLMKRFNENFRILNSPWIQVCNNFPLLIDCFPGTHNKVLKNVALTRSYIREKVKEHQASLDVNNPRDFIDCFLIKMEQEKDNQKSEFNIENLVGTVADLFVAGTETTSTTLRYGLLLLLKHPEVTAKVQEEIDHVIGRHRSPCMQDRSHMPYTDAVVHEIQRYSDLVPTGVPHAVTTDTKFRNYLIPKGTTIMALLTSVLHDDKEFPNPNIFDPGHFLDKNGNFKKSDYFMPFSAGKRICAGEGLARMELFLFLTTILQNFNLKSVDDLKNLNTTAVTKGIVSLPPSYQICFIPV
# Experimental: According to an established protocol (Wagmann et al., [2016]), the final volume per reaction tube was 50 μl with a final 4F-MDMB-BINACA concentration of 25 μM and enzyme concentrations of 50 pmol/ml for CYP1A2, CYP2A6, CYP2B6, CYP2C8, CYP2C9, CYP2C19, CYP2D6, CYP2E1, CYP3A4, and CYP3A5, respectively, or 0.25 mg protein/ml for FMO3. Furthermore, the reaction mixture contained 90 mM phosphate buffer (pH 7.4), superoxide dismutase (200 U/ml), isocitrate (5 mM), MgCl2 (5 mM), isocitrate dehydrogenase (0.5 U/ml), and NADP^+ (1.2 mM). The phosphate buffer was replaced with Tris buffer (90 mM) for incubations with CYP2A6 and CYP2C9 according to the manufacturer's recommendation. All incubations were performed at 37°C for 30 min and terminated by adding 50 μl of ice-cold acetonitrile. Afterwards, the mixtures were centrifuged at 18,407 × g for 5 min, 70 μl of the supernatants was transferred into autosampler vials, and 1 μl was injected onto the LC-HRMS/MS system. Positive control incubations were performed with pHLM (1 mg microsomal protein/ml), and negative controls without enzyme were prepared to identify non-metabolically formed compounds. All incubations were done in duplicate.
Structure (SMILES),"Number of phase I metabolites detected, pHLS9 [25 μM] ([1]; 25 μM)","Absolute peak area, pHLS9 1 h [25 μM] [1]","Absolute peak area, pHLS9 6 h [25 μM] [1]","Relative number of matches with the four most abundant signals in human plasma, pHLS9 [25 μM] ([1]; plasma, human data for ephylone and 4F-PHP from Wagmann et al., [2019b]) [%]","Relative number of matches with the four most abundant signals in human urine, pHLS9 [25 μM] ([1]; urine, human data for ephylone and 4F-PHP from Wagmann et al., [2019b]) [%]",Detection of metabolite in incubation with CYP2C8 (CYP2C8)
"COC(=O)C(NC(=O)c1nn(CCCCF)c2ccccc12)C(C)(C)C (centres unmarked) [4F-MDMB-BINACA, methyl 2-[1-(4-fluorobutyl)-1H-indazole-3-carbonyl]amino-3,3-dimethylbutanoate]",15,9.37E+08,2.17E+08,100,75,
O=C(O)c1nn(CCCCF)c2ccccc12 [MB1],,,,,,–
COC(=O)[C@@H](NC(=O)c1n[nH]c2ccccc12)C(C)(C)C [MB4],,5.62E+06,2.82E+05,,,–
CC(C)(C)C(NC(=O)c1nn(CCCCF)c2ccccc12)C(=O)O (centres unmarked) [MB8],,1.01E+08,2.77E+08,,,–
COC(=O)[C@@H](NC(=O)c1nn(CCCCO)c2ccccc12)C(C)(C)C [MB11],,4.27E+06,3.89E+05,,,+
COC(=O)[C@@H](NC(=O)c1nn(CCCCF)c2ccccc12)C(C)(C)CO [MB16],,1.70E+05,,,,–
